Results published in patent publication US10495627B2, “Apparatus and method for early diagnosis of cell death” (LYNCEE TEC S.A., priority 2010, dated 2019).
Entries after “also recorded” stand apart in the source; their conditions may differ.

Tests used:
[1] = system: primary cultures of mouse cortical neurons; assay: Mean phase value on cell bodies monitored over time by digital holographic microscopy (DHM) after glutamate-induced excitotoxic stimulation; format: cell-based
Text: The particular implementation is a transmission DHM setup making possible to monitor cells in time through phase measurement. The sketch of the optical arrangement of the measurement setup is shown in FIG. 3, where the light emitted by a light source is split into two beams and recombined to generate an interference producing a hologram on the camera. […] Phase images are reconstructed by a numerical method for off-axis digital hologram reconstruction.
In the different experiments described below, the optical property, employed for cell death detection is the mean phase value measured on cell bodies and monitored during time. The phase value is intrinsically a relative measurement that has to be compared with a phase reference, usually taken as the phase shift induced by the perfusion medium. Physically, the phase value φ can thus be related to an optical path length (OPL) as
[formula] where the indices i and m correspond respectively to the intracellular content of the cell and to the perfusion medium, h is the height of the cell at position (x, y) and n is the mean refractive index (RI) along the optical axis. The phase is measured by calculating a spatial averaging of the phase value on a constant surface contained in the cell body, to which a reference phase value measured on a zone of the field of view containing no biological material has been subtracted.
The meaning of the phase measured with an interferometric method in this context is dependent on the height of the cell and on its intracellular RI. Therefore, the phase is linked both to the cell volume phenotype (through cell height), and to the intracellular content of cells phenotype (through RI), and thus indirectly to the osmotic regulation of the cell. The phase signal is therefore an indicator of cell volume regulation through both parameters, and can be indirectly linked to homeostasis through osmotic phenomena.
This particular study is performed on primary cultures of mouse cortical neurons, mounted on coverslips for optical measurement. Before experiment, coverslips are mounted on a perfusion chamber used to apply the different solutions to the cells, which are immersed in a HEPES-buffered standard physiological perfusion medium. As an example of application of cell death detection through volume regulation, we present in the following a detection of neuronal death induced through glutamate-induced excitotoxic stimulation, ultimately leading to cell death. The glutamate is a neurotransmitter activating neuronal receptors, leading under strong exposure to high level of intracellular calcium concentration, which can lead to death pathway triggering if not regulated properly.
(§1) In order to validate the measurement principle proposed in this application, the cell viability is also tested with trypan blue 0.4% reagent, to enable comparative measurements. The dye relies on probing the cell membrane integrity, which becomes permeable to the color compound at a certain level after cell death mechanisms started. After reagent wash-out, the cell nuclei of non-viable cells are consequently stained in blue, as the dye fixes on DNA material. Excitotoxic effects were studied during the experiments, by applying glutamate pulses at different concentration to the cells. The excitation solutions were prepared with concentrations ranging between 25 μM and 100 μM, depending on the type of experiment. Perfusion changes were performed by washing the chamber with a micropipette, making it possible to replace the perfusion medium through typically two washes of the medium.
The mean phase value measured on four cell bodies is shown in FIG. 4(a), where the reagent has been applied several times on the culture with an interval of approximately one hour. […]

[2] = system: primary cultures of mouse cortical neurons; assay: Cell viability tested with trypan blue 0.4% reagent after glutamate stimulation; format: cell-based; details: for trypan blue staining / time at which nucleus was stained by trypan blue (cell death): 90 seconds; for time at which cell death was confirmed with trypan blue: 120 seconds
Description: as §1
In order to enable color measurement for cell viability assessment with the reagent, a flip mirror is inserted after the MO, so that the intensity image could also be recorded in focus with a color camera. When performing trypan blue staining, the illumination is changed to employ an incoherent halogen white light source to enable color measurement; this implies that during dye probing, no DHM measurement is performed, yielding part of unmeasured phase signal during time monitoring. Image merging between the two measurement techniques could be done through calibration of the system by imaging an object whose shape is well-known.
Brightfield color images of the culture, enabling the assessment through the trypan blue dye as a control experiment, are presented in FIGS. 4(b-c), respectively at t=30 min before the excitotoxic stimulation and t=290 min, where non viable cells are identified by the blue staining.

[3] = glutamate 50 μM during 90 seconds, cell 4

N[C@@H](CCC(=O)O)C(=O)O [glutamate]
phase variations [1, 3]: below 10 °
time to retrieve the same mean phase value [1, 3]: approximately 10 minutes
phase signal drop ([1]; glutamate 50 μM during 90 seconds, three of four cells (cells 1 to 3)): approximately 40 °
phase response ([1]; glutamate pulse 25 μM, 90 seconds, n=10 cells): reversible responses in phase; also recorded: only recovery curves
phase response ([1]; glutamate pulse 50 μM, 90 s): mixed responses between recovery and death
phase response ([1]; glutamate pulse 50 μM, 120 s): irreversible signals
trypan blue staining ([2]; glutamate 25 μM, up to 4 hours and 30 minutes after stimulation): all cells being unstained
time at which nucleus was stained by trypan blue (cell death) ([2]; glutamate 50 μM, cell 1): 116 min
time at which nucleus was stained by trypan blue (cell death) ([2]; glutamate 50 μM, cell 2): 207 min
time at which nucleus was stained by trypan blue (cell death) ([2]; glutamate 50 μM, cell 3): 252 min
trypan blue staining ([2]; glutamate 50 μM, cell 4, several hours after exposure): remained unstained with a healthy morphology
time at which cell death was confirmed with trypan blue ([2]; glutamate 50 μM, cell 3): 385 min
time at which cell death was confirmed with trypan blue ([2]; glutamate 50 μM, cells 1 and 2): 323 min
